Measurements published in ChEMBL document CHEMBL4354808, “Drugs for the Treatment of Zika Virus Infection” (J Med Chem, 2020).
Values after ≈ are worked out from the molar mass of the structure shown.

Legend:
[1] = Cytotoxicity against African green monkey Vero cells; format: cell-based; conditions: chlorocebus sabaeus
[2] = Cytotoxicity against human HuH7 cells; format: cell-based; conditions: Huh-7 cells
[3] = Cytotoxicity against human RD cells; format: cell-based
[4] = molecular target: T1, NS5 (Zika virus, UniProt A0A143MHK7); assay: Inhibition of Zika virus MTase (4 to 278 residues) expressed in Escherichia coli T7 using GpppAC4 as substrate in presence of [3H]SAM incubated for 30 mins by liquid scintillation counter method
[5] = molecular target: T1, NS5; assay: Inhibition of Zika virus MTase (4 to 278 residues) expressed in Escherichia coli T7 using A27 RNA as substrate in presence of [3H]SAM incubated for 30 mins by liquid scintillation counter method
[6] = molecular target: T2, Nonstructural protein 3 (Zika virus, UniProt A0A024AXB9); assay: Inhibition of N-terminal His6-tagged Zika virus NS2B (49 to 95 residues) - NS3 (1 to 170 residues) protease domain expressed in Escherichia coli BL21-Gold (DE3) cells preincubated for 10 mins followed by Bz-Nle-Lys-Lys-Arg-AMC substrate addition
[7] = molecular target: Genome polyprotein (dengue virus type 2, UniProt P29990); assay: Inhibition of Dengue virus 2 NS2B (48 to 95 residues)-NS3 (1 to 185 residues) expressed in Escherichia coli BL21 Rosetta (DE3) incubated for 30 mins followed by Abz-RRRRSAG-nTyr substrate addition
[8] = system: Zika virus; assay: Antiviral activity against Zika virus Puerto Rico/PRVABC59 infected in human A549 cells after 48 hrs by plaque reduction assay; format: functional, organism-based; conditions: Puerto Rico/PRVABC59, A549, 48 h
[9] = system: Yellow fever virus; assay: Antiviral activity against Yellow fever virus 17D V3 Vaccine infected in human A549 cells after 48 hrs by plaque reduction assay; format: functional, organism-based; conditions: A549, 48 h
[10] = system: dengue virus type 2; assay: Antiviral activity against Dengue virus 2 New Guinea C infected in human A549 cells after 48 hrs by plaque reduction assay; format: functional, organism-based; conditions: A549, 48 h
[11] = system: West Nile virus; assay: Antiviral activity against West Nile virus NY003356V2 infected in human A549 cells after 48 hrs by plaque reduction assay; format: functional, organism-based; conditions: NY003356V2, A549, 48 h
[12] = Cytotoxicity against human A549 cells after 42 hrs by WST-8 cell proliferation assay; format: cell-based
[13] = molecular target: T1, NS5; assay: Inhibition of Zika virus RNA-dependent RNA polymerase using poly(rC)/rG13 as substrate after 45 mins
[14] = system: Zika virus; assay: Antiviral activity against Zika virus PLCal_ZV infected in Huh7 cells by Promega Viral ToxGlo Assay; format: functional, organism-based; conditions: Huh-7
[15] = Cytotoxicity against golden hamster BHK21 cells by Promega Viral ToxGlo Assay; format: cell-based, Mesocricetus auratus; conditions: BHK-21 cells
[16] = Cytotoxicity against African green monkey Vero E6 cells by the MTS method; format: cell-based, Vero C1008; conditions: chlorocebus sabaeus
[17] = Selectivity ratio of CC50 for African green monkey Vero E6 cells to EC50 for Zika virus MR766 infected in African green monkey Vero E6 cells; format: toxicity, Vero C1008; conditions: read-out: Ratio CC50/EC50
[18] = Cytotoxicity against human NSC by CellTiter-Glo assay; format: cell-based; conditions: NSC cells
[19] = molecular target: T1, NS5; assay: Binding affinity to Zika virus Methyltransferase
[20] = system: Zika virus; assay: Antiviral activity against Zika virus Mex2-81 infected in human Jeg-3 cells assessed as reduction in virus-induced toxicity preincubated with cells for 1 hr followed by viral infection and measured 36 hrs post infection; format: functional, organism-based; conditions: Mex2-81, JEG-3
[21] = Cytotoxicity against human JEG3 cells incubated for 36 hrs by resazurin-dye based Alamar blue assay; format: cell-based; conditions: JEG-3 cells
[22] = molecular target: T2, Nonstructural protein 3; assay: Inhibition of wild type Zika virus NS2B-NS3 protease preincubated for 30 mins followed by Pyr-RTKR-AMC substrate addition
[23] = Cytotoxicity against human Neural progenitor cells after 24 hrs by ATP-Lite assay; format: cell-based
[24] = Half life in SJL mouse infected with Zika virus PA259459 at 10 mg/kg, ip measured up to 2 hr post infection by LC-MS/MS analysis; format: ADME, organism-based; conditions: in vivo
[25] = system: Zika virus; assay: Antiviral activity against Zika virus PA 259459 infected in SJL mouse assessed as decrease in viral RNA at 30 mg/kg dosed 5 times per day via drinking water for 5 days by RT-PCR relative to control; format: functional
[26] = Cytotoxicity against African green monkey Vero cells incubated for 4 days by luminescence method; format: cell-based; conditions: chlorocebus sabaeus
[27] = molecular target: T2, Nonstructural protein 3; assay: Inhibition of N-terminal His6-tagged Zika virus NS2B (45 to 96 residues) - NS3 (1 to 177 residues) protease domain expressed in Escherichia coli BL21-Gold (DE3) cells or Escherichia coli BL21 Rosetta (DE3) preincubated for 30 mins followed by Bz-nKRR-AM substrate addition measured over 10 mins at 60 secs interval by fluorescence method
[28] = system: Zika virus; assay: Antiviral activity against Zika virus MR766 infected in African green monkey Vero cells by plaque assay; format: functional, organism-based
[29] = Cytotoxicity against BHK21 cells after 24 to 48 hrs by CCK8 assay; format: cell-based, Mesocricetus auratus; conditions: hamster, BHK-21 cells
[30] = system: Zika virus; assay: Antiviral activity against Zika virus PLCal_ZV infected in African green monkey Vero cells assessed as reduction in viral titer after 1 hr by plaque assay; format: functional, organism-based
[31] = system: Zika virus; assay: Antiviral activity against Zika virus PLCal_ZV infected in human Neural progenitor cells; format: functional, organism-based
[32] = molecular target: T2, Nonstructural protein 3; assay: Inhibition of Zika virus NS2B (1421 to 1469 residues) - NS3 (1503 to 1688 residues) expressed in Escherichia coli BL21(DE3) cells using Dabcyl-KTSAVLQSGFRKME-Edans as substrate after 11 mins by FRET assay
[33] = Cytotoxicity against African green monkey Vero cells by MTT assay; format: cell-based; conditions: chlorocebus sabaeus
[34] = Cytotoxicity against HEK293 cells; format: cell-based; conditions: human
[35] = Cytotoxicity against human SNB19 cells; format: cell-based; conditions: SNB-19 cells
[36] = molecular target: T2, Nonstructural protein 3; assay: Inhibition of Zika virus Asian/8375 NS2B (48 to 100 residues)-NS3 (14 to 185 residues) expressed in Escherichia coli BL21 (DE3) Star cells preincubated for 30 mins followed by Bz-nKRR-AMC substrate addition
[37] = Cytotoxicity against human HuH7 cells by MTT assay; format: cell-based; conditions: Huh-7 cells
[38] = Cytotoxicity against human Neural progenitor cells; format: cell-based
[39] = Cytotoxicity against African green monkey Vero cells by visual method; format: cell-based; conditions: chlorocebus sabaeus

T2 sequence (A0A024AXB9 whole entry, the tested form may be a part): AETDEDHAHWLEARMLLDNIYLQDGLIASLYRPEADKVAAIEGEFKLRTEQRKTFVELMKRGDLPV
T1 sequence (A0A143MHK7 whole entry, the tested form may be a part): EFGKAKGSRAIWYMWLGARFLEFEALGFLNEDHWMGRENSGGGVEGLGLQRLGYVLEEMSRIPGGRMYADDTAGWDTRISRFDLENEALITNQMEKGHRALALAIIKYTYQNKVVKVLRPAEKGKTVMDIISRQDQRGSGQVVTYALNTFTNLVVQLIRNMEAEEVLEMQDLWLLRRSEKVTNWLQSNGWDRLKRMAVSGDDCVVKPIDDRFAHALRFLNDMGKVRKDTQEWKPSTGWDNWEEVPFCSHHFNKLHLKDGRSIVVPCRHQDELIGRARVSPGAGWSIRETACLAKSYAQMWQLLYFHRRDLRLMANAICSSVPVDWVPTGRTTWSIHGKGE
Genome polyprotein, sequence (P29990 1346-1475 limits assumed): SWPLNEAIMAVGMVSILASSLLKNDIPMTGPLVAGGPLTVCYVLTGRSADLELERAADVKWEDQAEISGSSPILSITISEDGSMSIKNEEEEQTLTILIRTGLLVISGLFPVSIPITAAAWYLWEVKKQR
Genome polyprotein, sequence (P29990 1476-2093 limits assumed): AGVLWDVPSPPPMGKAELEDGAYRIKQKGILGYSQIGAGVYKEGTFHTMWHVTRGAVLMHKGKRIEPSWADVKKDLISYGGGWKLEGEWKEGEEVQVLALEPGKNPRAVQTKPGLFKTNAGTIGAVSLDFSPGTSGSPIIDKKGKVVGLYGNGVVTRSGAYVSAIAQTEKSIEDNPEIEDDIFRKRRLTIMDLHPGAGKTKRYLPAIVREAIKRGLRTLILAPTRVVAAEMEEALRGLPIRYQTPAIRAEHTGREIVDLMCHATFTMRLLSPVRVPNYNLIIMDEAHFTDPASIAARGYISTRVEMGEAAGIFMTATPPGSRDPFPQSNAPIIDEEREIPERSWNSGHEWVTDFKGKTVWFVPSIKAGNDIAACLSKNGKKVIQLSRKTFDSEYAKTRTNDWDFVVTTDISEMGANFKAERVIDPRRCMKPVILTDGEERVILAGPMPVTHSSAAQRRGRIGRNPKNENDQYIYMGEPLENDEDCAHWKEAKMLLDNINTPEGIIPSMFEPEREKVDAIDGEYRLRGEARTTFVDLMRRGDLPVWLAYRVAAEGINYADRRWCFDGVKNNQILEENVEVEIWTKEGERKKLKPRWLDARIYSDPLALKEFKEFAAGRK

Nc1ncnc2c([C@@H]3N[C@H](CO)[C@@H](O)[C@H]3O)c[nH]c12
CC50 [1]: > 89 µM | CC50 [2]: > 89 µM | CC50 [3]: > 89 µM

C#C[C@@]1(O)[C@H](O)[C@@H](CO)O[C@H]1n1ccc2c(N)ncnc21
CC50 [1]: > 50 µM

Nc1cc(C(F)(F)F)ccc1NC(=O)Nc1cccc(S(=O)(=O)Nc2ccc(C(=O)O)cc2)c1
IC50 [4]: 24 µM | IC50 [5]: 79 µM

N=C(N)NCCC[C@H](NC(=O)[C@H](Cc1ccc(CN)cc1)NC(=O)c1ccccc1)B(O)O
IC50 [6]: 0.25 µM | Ki [6]: 0.04 µM

O=C1C=C/C(=N/Nc2ccc([N+](=O)[O-])cc2Cl)C=C1C(=O)Nc1cccc(Cl)c1
IC50 [7]: 1.8 µM | EC50 [8]: 1 µM | EC50 [9]: 0.28 µM | EC50 [10]: 0.81 µM | EC50 [11]: 1.27 µM | CC50 at 42 h [12]: 48.8 µM

[N-]=[N+]=NCc1cnc(C(=O)NO)c(O)c1CO
IC50 [13]: 5.2 µM | EC50 [14]: 4.6 µM | CC50 [15]: 22 µM

CCCCCOCc1c(Nc2ccc(S(N)(=O)=O)cc2)nc(N2CCOCC2)nc1C(=O)NCCOc1ccccc1
CC50 [16]: > 83.5 µM | selectivity ratio [17]: > 41

C#C[C@@]1(O)[C@H](O)[C@@H](COP(=O)(N[C@@H](C)C(=O)OC(C)C)Oc2ccccc2)O[C@H]1n1ccc(=O)[nH]c1=O (some centres undefined)
CC50 [18]: > 50 µM

Nc1ncnc2c1ncn2[C@@H]1O[C@H](CN(CC[C@H](N)C(=O)O)Cc2ccc(F)cc2)[C@@H](O)[C@H]1O
Kd [19]: 24.3 µM

CO[C@H]1CC[C@@H](O[C@H]2C[C@H]([C@]3(C)CC[C@]4(C[C@H](O)[C@@H](C)[C@@H]([C@@H](C)/C=C(\C)C(=O)[C@H](C)C[C@H](C)C(=O)O)O4)O3)O[C@]3(O[C@@H]([C@H]4O[C@@](O)(CO)[C@H](C)C[C@@H]4C)C[C@@H]3C)[C@@H]2C)O[C@@H]1C
EC50 [20]: 0.97 µM | CC50 at 36 h [21]: 6.1 µM

Clc1nc2n[nH]nc2nc1Cl
IC50 [22]: 0.82 µM | CC50 at 24 h [23]: > 50 µM | half-life [24]: 20 min | fold change (FC) [25]: 10

CC(C)OC(=O)[C@H](C)NP(=O)(OC[C@H]1O[C@@H](n2ccc(=O)[nH]c2=O)[C@H](O)[C@@H]1O)Oc1ccccc1 (some centres undefined)
CC50 [18]: 47 µM

O=C(NC(=S)Nc1ccc(N2CCN(C(=O)c3cccs3)CC2)cc1)c1sc2ccccc2c1Cl
CC50 at 96 h [26]: 19.4 µM

COc1ccc(S(=O)(=O)n2nc(OC(=O)c3ccccc3)cc2N)cc1
IC50 [27]: 1.5 µM

O[C@@H](c1cc(C(F)(F)F)nc2c(C(F)(F)F)cccc12)[C@H]1CCCCN1 [(S,R)-MEFLOQUINE]
EC50 [28]: 3.95 µM | CC50 [29]: 20.4 µM

C[S+](CC[C@H](N)C(=O)[O-])C[C@H]1O[C@@H](n2cnc3c(N)ncnc32)[C@H](O)[C@@H]1O (some centres undefined) [ADEMETIONINE]
Kd [19]: 2.58 µM

CCN(CC)Cc1cc(Nc2ccnc3cc(Cl)ccc23)ccc1O [AMODIAQUINE]
EC50 [30]: 2.8 to 4.4 µM | EC50 [31]: 2.8 to 4.4 µM

O=c1c(O[C@@H]2O[C@H](CO)[C@@H](O)[C@H](O)[C@H]2O)c(-c2ccc(O)cc2)oc2cc(O)cc(O)c12 [ASTRAGALIN]
IC50 [32]: 112 µM

CC(C)C[C@H]1C(=O)N2CCC[C@H]2[C@]2(O)O[C@](NC(=O)[C@@H]3C=C4c5cccc6[nH]c(Br)c(c56)C[C@H]4N(C)C3)(C(C)C)C(=O)N12 [BROMOCRIPTINE]
CC50 [33]: > 40 µM

CC[C@H]1CN2CCc3cc(OC)c(OC)cc3[C@@H]2C[C@@H]1C[C@H]1NCCc2cc(OC)c(OC)cc21 [EMETINE]
CC50 [34]: 0.18 µM | CC50 [35]: 0.086 µM

O=C(O[C@@H]1Cc2c(O)cc(O)cc2O[C@@H]1c1ccc(O)c(O)c1)c1cc(O)c(O)c(O)c1 [EPICATECHIN GALLATE]
IC50 [32]: 89 µM

O=C(O[C@@H]1Cc2c(O)cc(O)cc2O[C@@H]1c1cc(O)c(O)c(O)c1)c1cc(O)c(O)c(O)c1 [EPIGALOCATECHIN GALLATE]
IC50 [32]: 87 µM

O=C(O[C@@H]1Cc2c(O)cc(O)cc2O[C@H]1c1cc(O)c(O)c(O)c1)c1cc(O)c(O)c(O)c1 [GALLOCATECHIN GALLATE]
IC50 [32]: 99 µM

CC(C)(C)NCc1ccc(Nc2ccnc3cc(Cl)ccc23)cc1O [GSK-369796]
EC50 [28]: 2.57 µM | CC50 [29]: 98 µM

O=c1cc(-c2ccc(O)c(O)c2)oc2cc(O)cc(O)c12 [LUTEOLIN]
IC50 [32]: 53 µM

O=c1c(O)c(-c2cc(O)c(O)c(O)c2)oc2cc(O)cc(O)c12 [MYRICETIN]
IC50 [32]: 22 µM | IC50 [36]: 1.3 µM | Ki [36]: 0.8 µM

CO[C@@H]1[C@@H](OC(N)=O)[C@@H](O)[C@H](Oc2ccc3c(O)c(NC(=O)c4ccc(O)c(CC=C(C)C)c4)c(=O)oc3c2C)OC1(C)C [NOVOBIOCIN]
CC50 [33]: 850 µg/mL | CC50 [37]: 1100 µg/mL (≈ 1800 µM)

CCN(CC)CCCC(C)Nc1c2ccc(Cl)cc2nc2ccc(OC)cc12 (centres undefined) [QUINACRINE]
EC50 [28]: 2.27 µM | CC50 [29]: 18.6 µM

NC(=O)c1ncn([C@@H]2O[C@H](CO)[C@@H](O)[C@H]2O)n1 [RIBAVIRIN]
CC50 [1]: > 100 µM

C[C@@H]1O[C@@H](OC[C@H]2O[C@@H](Oc3c(-c4ccc(O)c(O)c4)oc4cc(O)cc(O)c4c3=O)[C@H](O)[C@@H](O)[C@@H]2O)[C@H](O)[C@H](O)[C@H]1O [RUTIN]
IC50 [32]: 104 µM

Nc1ncnc2c1ncn2[C@@H]1O[C@H](C[C@@H](N)CC[C@H](N)C(=O)O)[C@@H](O)[C@H]1O [SINEFUNGIN]
IC50 [4]: 1.18 µM | IC50 [5]: 1.62 µM

CC(C)OC(=O)[C@H](C)N[P@](=O)(OC[C@H]1O[C@@H](n2ccc(=O)[nH]c2=O)[C@](C)(F)[C@@H]1O)Oc1ccccc1 [SOFOSBUVIR]
CC50 [1]: 360 to 512 µM | CC50 [38]: 360 to 512 µM

Nc1ncnc2c1ccn2[C@@H]1O[C@H](CO)[C@@H](O)[C@H]1O [TUBERCIDIN]
CC50 [39]: > 357 µM
